Measurements: patent publication US9802957B2, “Processes of preparing a JAK1 inhibitor and new forms thereto” (Incyte Corporation, priority 2014, dated 2017)

What was measured:
[1] = Dynamic Vapor Sorption (DVS) study; assay type: physicochemical
Protocol: Some of the compounds prepared were analyzed using Dynamic Vapor Sorption (DVS). Typical DVS conditions are as follows: SGA-100 Symmetric Vapor Sorption Analyzer from VTI Corporation. The moisture uptake profile was completed in four cycles in 10% relative humidity (RH) increments with the first adsorption from 25% to 95% RH, followed by desorption in 10% increments from 95% to 5% RH. The equilibration criteria were 0.0050 wt % in 5 minutes with a maximum equilibration time of 180 minutes; Data logging interval: 2.00 min or 0.0100 wt %. All adsorption and desorption were performed at room temperature (25° C.). No pre-drying step was applied.
A Dynamic Vapor Sorption (DVS) study was conducted on the compound of Example 9 to monitor the hydroscopicity, hydrate formation and dehydration, as well as solid form transformation. The moisture uptake profile was completed in four cycles in 10% relative humidity (RH) increments with the first adsorption from 25% to 95% RH, followed by desorption in 10% increments from 95% to 5% RH. The equilibration criteria were as follows: 0.0050 wt % in 5 minutes with a maximum equilibration time of 180 minutes. All adsorption and desorption were performed at room temperature (25° C.). No pre-drying step was applied for the sample.

[2] = Humidity Chamber Study A; assay type: physicochemical; conditions: 40° C., 75% relative humidity, 5 days
Protocol: Temperature: 40° C.; Relative humidity: 75%; Time: 5 days.
The compound of Example 9 was placed in a humidity chamber set at 40° C. and 75% relative humidity for 5 days.

[3] = Humidity Chamber Study B; assay type: physicochemical; conditions: 30° C., 90% relative humidity, 7 days
Protocol: Temperature: 30° C.; Relative humidity: 90%; Time: 7 days.
The compound of Example 9 was placed in a humidity chamber set at 30° C. and 90% relative humidity (RH) for 7 days. […] The XRPD patterns of the 30° C./90% RH sample corresponded to the hydrate form obtained from an aqueous suspension of the anhydrous crystalline free base drug substance.

[4] = target: T1, human JAK1 (a.a. 837-1142) (Homo sapiens, UniProt P23458); assay: In vitro JAK kinase assay (HTRF), JAK1; assay type: biochemical; conditions: 1 mM ATP
T1 construct: The catalytic domains of human JAK1 (a.a. 837-1142); made in house; host or cells: insect cells (baculovirus)
T1 sequence (P23458 849-1154): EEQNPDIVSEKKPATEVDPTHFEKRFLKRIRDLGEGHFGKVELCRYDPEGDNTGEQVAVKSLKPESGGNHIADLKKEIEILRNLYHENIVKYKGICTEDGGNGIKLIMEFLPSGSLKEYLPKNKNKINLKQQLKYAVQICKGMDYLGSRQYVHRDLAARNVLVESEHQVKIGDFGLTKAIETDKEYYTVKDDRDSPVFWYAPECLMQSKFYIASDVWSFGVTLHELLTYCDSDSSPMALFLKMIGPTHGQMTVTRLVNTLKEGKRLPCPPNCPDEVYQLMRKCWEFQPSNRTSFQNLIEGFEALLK
Protocol: (§1) Compounds herein were tested for inhibitory activity of JAK targets according to the following in vitro assay described in Park et al., Analytical Biochemistry 1999, 269, 94-104. The catalytic domains of human JAK1 (a.a. 837-1142), JAK2 (a.a. 828-1132) and JAK3 (a.a. 781-1124) were expressed using baculovirus in insect cells and purified. The catalytic activity of JAK1, JAK2 or JAK3 was assayed by measuring the phosphorylation of a biotinylated peptide. The phosphorylated peptide was detected by homogenous time resolved fluorescence (HTRF). IC50s of compounds were measured for each kinase in the 40 μL, reactions that contain the enzyme, ATP and 500 nM peptide in 50 mM Tris (pH 7.8) buffer with 100 mM NaCl, 5 mM DTT, and 0.1 mg/mL (0.01%) BSA. For the 1 mM IC50 measurements, ATP concentration in the reactions was 1 mM. Reactions were carried out at room temperature for 1 hour and then stopped with 20 μL 45 mM EDTA, 300 nM SA-APC, 6 nM Eu-Py20 in assay buffer (Perkin Elmer, Boston, Mass.). Binding to the Europium labeled antibody took place for 40 minutes and HTRF signal was measured on a PHERAi star plate reader (BMG, Cary, N.C.).

[5] = tested on: human JAK1 (a.a. 837-1142); assay: In vitro JAK kinase assay (HTRF), JAK1; assay type: biochemical
Protocol: as §1

[6] = target: T2, human JAK2 (a.a. 828-1132) (Homo sapiens, UniProt O60674); assay: In vitro JAK kinase assay (HTRF), JAK2; assay type: biochemical; conditions: 1 mM ATP
T2 construct: JAK2 (a.a. 828-1132); made in house; host or cells: insect cells (baculovirus)
T2 sequence (O60674 828-1132): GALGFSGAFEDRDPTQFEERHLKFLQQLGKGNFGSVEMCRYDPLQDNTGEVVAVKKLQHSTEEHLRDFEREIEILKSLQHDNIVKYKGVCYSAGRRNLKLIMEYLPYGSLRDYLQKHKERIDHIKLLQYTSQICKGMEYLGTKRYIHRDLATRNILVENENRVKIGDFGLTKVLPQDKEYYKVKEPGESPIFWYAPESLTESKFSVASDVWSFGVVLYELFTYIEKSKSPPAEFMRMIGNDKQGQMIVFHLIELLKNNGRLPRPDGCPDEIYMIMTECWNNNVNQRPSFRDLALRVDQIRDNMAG
Protocol: as §1

C[C@@H](O)c1nc2cnc3ccsc3c2n1[C@H]1CC[C@H](CC#N)OC1 [Example 9, 2-((2R,5S)-5-(2-((R)-1-hydroxyethyl)-1H-imidazo[4,5-d]thieno[3,2-b]pyridin-1-yl)tetrahydro-2H-pyran-2-yl)acetonitrile]
Water absorption of the anhydrous form ([1]; DVS, 25° C., four cycles, 5% to 95% RH): slow below 85% RH and fast above 85% RH | Solid form after DVS cycle 4 ([1]; DVS, 25° C., XRPD before and after): fully converted to the hydrate form | Behaviour under ambient storage conditions ([1]; ambient storage): slowly absorb water and convert to hydrate form | Solid form by XRPD after humidity chamber [2]: converted to the crystalline hydrate form | Water content by KF after humidity chamber [2]: 4.6% | Weight loss observed by TGA after humidity chamber [2]: 5.01% | Solid form by XRPD after humidity chamber [3]: converted to the crystalline hydrate form | Water content by KF after humidity chamber [3]: 4.72% | Weight loss observed by TGA after humidity chamber [3]: 5.05%

C[C@@H](O)c1nc2cnc3ccsc3c2n1[C@H]1CC[C@H](CC#N)OC1 [Example 10, 2-((2R,5S)-5-(2-((R)-1-hydroxyethyl)-1H-imidazo[4,5-d]thieno[3,2-b]pyridin-1-yl)tetrahydro-2H-pyran-2-yl)acetonitrile monohydrate]
Dehydration process from the hydrate to the anhydrous form ([1]; DVS desorption, 25° C.): very slow, even at 5% RH | Physical stability to humidity ([1]; DVS, 25° C.): physically stable in a wide range of humidity conditions

C[C@@H](O)c1nc2cnc3ccsc3c2n1[C@H]1CC[C@H](CC#N)OC1 [Formula Ia, 2-((2R,5S)-5-(2-((R)-1-hydroxyethyl)-1H-imidazo[4,5-d]thieno[3,2-b]pyridin-1-yl)tetrahydro-2H-pyran-2-yl)acetonitrile]
IC50 [4]: ≤ 100 nM | JAK2/JAK1 ratio ([5]; 1 mM ATP, ratio of IC50s): > 10 | JAK2/JAK1 IC50 ratio ([5]; general statement of selectivity for JAK1 over JAK2): > 10 | IC50 [6]: ≤ 1000 nM
